Results: ChEMBL document CHEMBL1201862, “PubChem BioAssay data set” (2004)
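Test compounds were applied to cells in 96-well plates for 48 hours at 5 doses. GI50 marks 50% less growth.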 Active and inactive are the calls of the source. No stated cut-off is given here; in the data, active = GI50 up to about 1.1 µM and inactive = higher.

Experiments:
Test in all cases: growth of human tumour cells (NCI), 48 h
OVCAR-3 = system: OVCAR-3
SK-MEL-5 = system: SK-MEL-5
NCI-H460 = system: NCI-H460
Hs-578T = system: Hs-578T
SNB-19 = system: SNB-19
NCI-H23 = system: NCI-H23
MDA-N = system: MDA-N
SF-539 = system: SF-539
TK-10 = system: TK-10
Malme-3M = system: Malme-3M
MDA-MB-435 = system: MDA-MB-435
UACC-257 = system: UACC-257
COLO 205 = system: COLO 205
A498 = system: A498
HOP-62 = system: HOP-62
M14 = system: M14
SK-OV-3 = system: SK-OV-3
IGROV-1 = system: IGROV-1
T47D = system: T47D
HOP-92 = system: HOP-92
HCT-116 = system: HCT-116
OVCAR-5 = system: OVCAR-5
CCRF-CEM = system: CCRF-CEM
K562 = system: K562
NCI-H522 = system: NCI-H522
HT-29 = system: HT-29
MCF7 = system: MCF7
CAKI-1 = system: CAKI-1
ACHN = system: ACHN
RXF 393 = system: RXF 393
HL-60 = system: HL-60
HCT-15 = system: HCT-15
SNB-75 = system: SNB-75
LOX IMVI = system: LOX IMVI
SR = system: SR
UACC-62 = system: UACC-62
OVCAR-4 = system: OVCAR-4
DU-145 = system: DU-145
NCI-H226 = system: NCI-H226
BT-549 = system: BT-549
RPMI-8226 = system: RPMI-8226
SW-620 = system: SW-620
HCC 2998 = system: HCC 2998
UO-31 = system: UO-31
EKVX = system: EKVX
KM12 = system: KM12
SF-268 = system: SF-268
786-0 = system: 786-0
MOLT-4 = system: MOLT-4
A549 = system: A549
SF-295 = system: SF-295
PC-3 = system: PC-3
SK-MEL-28 = system: SK-MEL-28
OVCAR-8 = system: OVCAR-8
U-251 = system: U-251
SN12C = system: SN12C
NCI/ADR-RES = system: NCI/ADR-RES
SK-MEL-2 = system: SK-MEL-2
MDA-MB-231 = system: MDA-MB-231

COc1c(O)c(O)c2c(c1O)C(=O)c1cc(C)cc(O)c1C2=O
GI50 (OVCAR-3): 26.4 µM (inactive)
GI50 (SK-MEL-5): 29.9 µM (inactive)
GI50 (NCI-H460): 18.7 µM (inactive)
GI50 (Hs-578T): 19.6 µM (inactive)
GI50 (SNB-19): 65.3 µM (inactive)
GI50 (NCI-H23): 29.2 µM (inactive)
GI50 (MDA-N): 53 µM (inactive)
GI50 (SF-539): > 66.5 µM (inactive)
GI50 (TK-10): 49.3 µM (inactive)
GI50 (Malme-3M): 8.91 µM (inactive)
GI50 (MDA-MB-435): 53.8 µM (inactive)
GI50 (UACC-257): 48.3 µM (inactive)
GI50 (COLO 205): 24.5 µM (inactive)
GI50 (A498): 49.2 µM (inactive)
GI50 (HOP-62): 56.5 µM (inactive)
GI50 (M14): 22.8 µM (inactive)
GI50 (SK-OV-3): 36.8 µM (inactive)
GI50 (IGROV-1): 13.2 µM (inactive)
GI50 (T47D): 24.8 µM (inactive)
GI50 (HOP-92): 92 µM (inactive)
GI50 (HCT-116): 32.8 µM (inactive)
GI50 (OVCAR-5): 43 µM (inactive)
GI50 (CCRF-CEM): 33.3 µM (inactive)
GI50 (K562): 37.4 µM (inactive)
GI50 (NCI-H522): 6.07 µM (inactive)
GI50 (HT-29): 24.4 µM (inactive)
GI50 (MCF7): 44.8 µM (inactive)
GI50 (CAKI-1): 37.9 µM (inactive)
GI50 (ACHN): 40.3 µM (inactive)
GI50 (RXF 393): > 70.8 µM (inactive)
GI50 (HL-60): 50 µM (inactive)
GI50 (HCT-15): 14.1 µM
GI50 (SNB-75): 2.97 µM (inactive)
GI50 (LOX IMVI): 24.1 µM (inactive)
GI50 (SR): 31.6 µM (inactive)
GI50 (UACC-62): 15.3 µM (inactive)
GI50 (OVCAR-4): 14.4 µM (inactive)
GI50 (DU-145): 77.1 µM (inactive)
GI50 (NCI-H226): 20 µM (inactive)
GI50 (BT-549): 40.4 µM (inactive)
GI50 (RPMI-8226): 35.2 µM (inactive)
GI50 (SW-620): 40 µM (inactive)
GI50 (HCC 2998): 75.2 µM (inactive)
GI50 (UO-31): 23.1 µM (inactive)
GI50 (EKVX): 22.4 µM (inactive)
GI50 (KM12): 35.2 µM (inactive)
GI50 (SF-268): 30.2 µM (inactive)
GI50 (786-0): 36.7 µM (inactive)
GI50 (MOLT-4): 15.4 µM (inactive)
GI50 (A549): 45.9 µM (inactive)
GI50 (SF-295): 21.9 µM (inactive)
GI50 (PC-3): 31.1 µM (inactive)
GI50 (SK-MEL-28): 98.6 µM (inactive)
GI50 (OVCAR-8): 20.1 µM (inactive)
GI50 (U-251): 50.4 µM (inactive)
GI50 (SN12C): 50.7 µM (inactive)
GI50 (NCI/ADR-RES): 16.7 µM (inactive)
GI50 (SK-MEL-2): > 100 µM (inactive)
GI50 (MDA-MB-231): 12.2 µM (inactive)

COC(=O)c1cc(C)ccc1CC(Cc1cccc(C)c1)C(=O)OC (configuration not stated)
GI50 (OVCAR-3): > 100 µM (inactive)
GI50 (SK-MEL-5): 34.8 µM (inactive)
GI50 (NCI-H460): > 100 µM (inactive)
GI50 (Hs-578T): > 100 µM (inactive)
GI50 (SNB-19): > 100 µM (inactive)
GI50 (NCI-H23): 38.5 µM (inactive)
GI50 (MDA-N): > 100 µM (inactive)
GI50 (SF-539): > 100 µM (inactive)
GI50 (TK-10): > 100 µM (inactive)
GI50 (Malme-3M): > 100 µM (inactive)
GI50 (MDA-MB-435): > 100 µM (inactive)
GI50 (UACC-257): > 100 µM (inactive)
GI50 (COLO 205): > 100 µM (inactive)
GI50 (A498): > 100 µM (inactive)
GI50 (HOP-62): > 100 µM (inactive)
GI50 (M14): > 100 µM (inactive)
GI50 (SK-OV-3): 4.06 µM (inactive)
GI50 (IGROV-1): > 100 µM (inactive)
GI50 (T47D): > 100 µM (inactive)
GI50 (HOP-92): 25.8 µM (inactive)
GI50 (HCT-116): 80.7 µM (inactive)
GI50 (OVCAR-5): 17.3 µM (inactive)
GI50 (CCRF-CEM): 46.2 µM (inactive)
GI50 (K562): 45.7 µM (inactive)
GI50 (NCI-H522): 74.6 µM (inactive)
GI50 (HT-29): 50.6 µM (inactive)
GI50 (MCF7): > 100 µM (inactive)
GI50 (CAKI-1): > 100 µM (inactive)
GI50 (ACHN): > 100 µM (inactive)
GI50 (RXF 393): 29.2 µM (inactive)
GI50 (HL-60): 34.7 µM (inactive)
GI50 (HCT-15): > 100 µM
GI50 (SNB-75): 39.5 µM (inactive)
GI50 (LOX IMVI): > 100 µM (inactive)
GI50 (SR): 38.4 µM (inactive)
GI50 (OVCAR-4): > 100 µM (inactive)
GI50 (DU-145): 92.9 µM (inactive)
GI50 (NCI-H226): > 100 µM (inactive)
GI50 (BT-549): > 100 µM (inactive)
GI50 (RPMI-8226): 29.6 µM (inactive)
GI50 (SW-620): > 100 µM (inactive)
GI50 (HCC 2998): > 100 µM (inactive)
GI50 (UO-31): > 100 µM (inactive)
GI50 (EKVX): 59.2 µM (inactive)
GI50 (KM12): > 100 µM (inactive)
GI50 (SF-268): 13.6 µM (inactive)
GI50 (786-0): > 100 µM (inactive)
GI50 (MOLT-4): 23.4 µM (inactive)
GI50 (A549): > 100 µM (inactive)
GI50 (SF-295): > 100 µM (inactive)
GI50 (PC-3): > 100 µM (inactive)
GI50 (SK-MEL-28): > 100 µM (inactive)
GI50 (OVCAR-8): > 100 µM (inactive)
GI50 (U-251): > 100 µM (inactive)
GI50 (SN12C): > 100 µM (inactive)
GI50 (NCI/ADR-RES): 95.9 µM (inactive)
GI50 (SK-MEL-2): 47.3 µM (inactive)
GI50 (MDA-MB-231): > 100 µM (inactive)
